Experimental data taken from patent US20120095060A1, “METHODS AND COMPOSITIONS OF MITOGEN-ACTIVATED PROTEIN KINASE (MAPK) PATHWAY INHIBITORS FOR TREATING PULMONARY FIBROSIS” (priority 2010, published 2012).

Tests used:
[1] = test system: established TGF-α-induced pulmonary fibrosis; assay: Rescue study of established fibrosis: lung mechanics; assay type: in vivo; conditions: CCSP/TGF-α mice, 8 weeks total Dox, treatment during last 4 weeks, vs vehicle
Protocol: (§1) To determine whether the ERK/MAPK pathway mediates the progression of established fibrosis, CCSP/TGFα mice were treated with ARRY following 4 weeks of Dox, while remaining on Dox for an additional 4 weeks (8 weeks total Dox, 4 week ARRY). Controls included CCSP/TGFα mice treated with vehicle while remaining on Dox an additional 4 weeks (8 weeks total Dox, 4 week vehicle). CCSP/TGFα mice began losing body weight after 4 weeks of Dox. […] See FIG. 6, illustrating that TGF-α was induced with doxycycline for 8 weeks in transgenic mice. ARRY added after 4 weeks of TGF-α expression attenuated weight loss, compared to vehicle-treated mice.
See FIG. 7, illustrating that TGF-α was induced with doxycycline for 8 weeks in CCSP/TGF-α transgenic mice. ARRY added after 4 weeks of TGF-α expression prevented progression of alterations in lung mechanics compared to vehicle-treated mice. *=p<0.05 compared to vehicle control CSP/− mice. *#=p<0.05 compared to CCSP/TGF-α mice.
(§2) Pulmonary Mechanics: Lung mechanics were assessed on anesthetized mice using a computerized Flexi Vent system (SCIREQ, Montreal, Canada). […] The ventilation mode was changed to forced oscillatory signal (0.5-19.6 Hz), and respiratory impedance was measured. […]

[2] = test system: TGF-α-induced cellular proliferation; assay: Epithelial and mesenchymal proliferation in lung sections of CCSP/TGF-α mice; assay type: in vivo; conditions: twice daily by gavage, 4 days of TGF-α induction
Protocol: ARRY was administered to CCSP/TGF-α mice (i.e., mice expressing TGF-α in the epithelium, under control of the doxycycline (Dox)-regulatable Clara cell secretory protein promoter) twice daily by gavage, with the first dose at the time of TGF-α induction with doxycycline. Mice were sacrificed after 4 days of TGF-α induction and ARRY administration.
(§3) Administration of ARRY142886: ARRY142886 (ARRY) is a potent, highly specific, allosteric inhibitor of MEK1/2. ARRY is a second generation MEK inhibitor that targets the Ras-Raf-MEK-ERK pathway. ARRY was administered to mice twice daily by gavage, with the first dose at the time of TGF-α induction with doxycycline. Mice were then anesthetized (Isoflurane; Abbott Labs, Chicago, Ill.), and 37.5 mg/kg sterile ARRY142886 was administered by gavage using a 20 gauge feeding catheter (Harvard Apparatus, Holliston, Mass.). Mice were treated with vehicle or ARRY twice daily for up to 4 weeks. Mice were weighed at the beginning of the study and at weekly intervals.
Lung Histology and Immunohistochemistry: Mice were killed with pentobarbital sodium (65 mg/ml) euthanasia solution (Fort Dodge Animal Health, Fort Dodge, Iowa), and lungs were inflation fixed using 4% paraformaldehyde at 25 cm H2O of pressure, and then allowed to fix overnight at 4° C. […]

[3] = test system: TGF-α-induced pulmonary fibrosis; assay: Prevention study: lung proliferation and matrix gene expression (Collagens I, III and Elastin); assay type: in vivo; conditions: TGF-α transgenic mice, 4 weeks twice daily, vs vehicle
Protocol: A 4-week study was performed to evaluate the physiologic effects of MEK1/2 kinase inhibition with ARRY on TGF-α-induced pulmonary fibrosis. ARRY was administered to TGF-α transgenic mice; a model for studying pulmonary fibrosis. Endpoints included changes in lung mechanics, lung histology, lung cell proliferation and changes in matrix gene expression (Collagens I, III and Elastin). Differences in the parameters were compared between mice treated with and without ARRY. Mice which over express TGF-α that were treated with 4 weeks of vehicle (i.e. an innocuous or inert medication) developed severe lung fibrosis on histology and lung collagen measurements associated with severe lung restriction on lung mechanics. […] Together, these findings support that MEK1/2 inhibition prevents TGF-α/EGF-mediated pulmonary fibrosis, and is a possible pharmacological strategy to treat pulmonary fibrosis.

[4] = Rescue study of established fibrosis: body weight; assay type: in vivo; conditions: CCSP/TGFα mice, 8 weeks total Dox, treatment during last 4 weeks, vs vehicle
Protocol: as §1, §3

[5] = test system: TGF-α-induced pulmonary fibrosis; assay: Prevention study: lung mechanics in TGF-α-induced pulmonary fibrosis; assay type: in vivo; conditions: CCSP/TGF-α mice, twice daily for 4 weeks from time of Dox, vs vehicle
Description: To examine if ARRY prevented the physiologic effects of TGF-α-induced lung fibrosis, CCSP/TGF-α mice were given ARRY twice daily for 4 weeks while TGF-α was induced. […] More specifically, FIG. 3 illustrates that ARRY prevents TGF-α-mediated alterations in lung mechanics (*=p<0.05 compared to vehicle and ARRY-treated mice). […] Representative samples from four mice per group include low power (4×) and higher power (10×) of pleural fibrosis.
To induce TGF-α expression, adult transgenic mice (8-12 weeks old) were placed on Doxycycline-containing drinking water (0.5 mg/ml) and food (62.5 mg/kg). Dox-containing water was replaced three times per week.
Administration of ARRY142886: ARRY142886 (ARRY) is a potent, highly specific, allosteric inhibitor of MEK1/2. ARRY is a second generation MEK inhibitor that targets the Ras-Raf-MEK-ERK pathway. ARRY was administered to mice twice daily by gavage, with the first dose at the time of TGF-α induction with doxycycline. […]
as §2

[6] = test system: TGF-α-induced pulmonary fibrosis; assay: Prevention study: total lung collagen (Sircol Collagen Assay); assay type: in vivo; conditions: CCSP/TGF-α mice, twice daily for 4 weeks from time of Dox
Description: To examine if ARRY prevented the physiologic effects of TGF-α-induced lung fibrosis, CCSP/TGF-α mice were given ARRY twice daily for 4 weeks while TGF-α was induced. […] More specifically, FIG. 3 illustrates that ARRY prevents TGF-α-mediated alterations in lung mechanics (*=p<0.05 compared to vehicle and ARRY-treated mice). […] Representative samples from four mice per group include low power (4×) and higher power (10×) of pleural fibrosis. […] To induce TGF-α expression, adult transgenic mice (8-12 weeks old) were placed on Doxycycline-containing drinking water (0.5 mg/ml) and food (62.5 mg/kg). Dox-containing water was replaced three times per week. Administration of […]) is a potent, highly specific, allosteric inhibitor of MEK1/2. ARRY is a second generation MEK inhibitor that targets the Ras-Raf-MEK-ERK pathway. ARRY was administered to mice twice daily by gavage, with the first dose at the time of TGF-α induction with doxycycline. Mice were then anesthetized (Isoflurane; Abbott Labs, Chicago, Ill.), and 37.5 mg/kg sterile ARRY142886 was administered by gavage using a 20 gauge feeding catheter (Harvard Apparatus, Holliston, Mass.). […] Total Lung Collagen: Total lung collagen was determined by measuring total soluble collagen (Sircol Collagen Assay, Biocolor, Ireland). […] The optical density measured with a spectrophotometer (540 nm).

[7] = test system: TGF-α-induced pulmonary fibrosis; assay: Prevention study: lung histology (trichrome stain); assay type: in vivo, mice
Description: To examine if ARRY prevented the physiologic effects of TGF-α-induced lung fibrosis, CCSP/TGF-α mice were given ARRY twice daily for 4 weeks while TGF-α was induced. […] More specifically, FIG. 3 illustrates that ARRY prevents TGF-α-mediated alterations in lung mechanics (*=p<0.05 compared to vehicle and ARRY-treated mice). […] Representative samples from four mice per group include low power (4×) and higher power (10×) of pleural fibrosis. […] To induce TGF-α expression, adult transgenic mice (8-12 weeks old) were placed on Doxycycline-containing drinking water (0.5 mg/ml) and food (62.5 mg/kg). Dox-containing water was replaced three times per week. Administration of […]) is a potent, highly specific, allosteric inhibitor of MEK1/2. ARRY is a second generation MEK inhibitor that targets the Ras-Raf-MEK-ERK pathway. ARRY was administered to mice twice daily by gavage, with the first dose at the time of TGF-α induction with doxycycline. Mice were then anesthetized (Isoflurane; Abbott Labs, Chicago, Ill.), and 37.5 mg/kg sterile ARRY142886 was administered by gavage using a 20 gauge feeding catheter (Harvard Apparatus, Holliston, Mass.). Mice were treated with vehicle or ARRY twice daily for up to 4 weeks. Mice were weighed at the beginning of the study and at weekly intervals. […]

[8] = test system: established TGF-α-induced pulmonary fibrosis; assay: Rescue study of established fibrosis: lung histology (trichrome stain); assay type: in vivo; conditions: CCSP/TGF-α mice, 8 weeks total Dox, treatment during last 4 weeks
Protocol: To determine whether the ERK/MAPK pathway mediates the progression of established fibrosis, CCSP/TGFα mice were treated with ARRY following 4 weeks of Dox, while remaining on Dox for an additional 4 weeks (8 weeks total Dox, 4 week ARRY). Controls included CCSP/TGFα mice treated with vehicle while remaining on Dox an additional 4 weeks (8 weeks total Dox, 4 week vehicle). CCSP/TGFα mice began losing body weight after 4 weeks of Dox. […] See FIG. 6, illustrating that TGF-α was induced with doxycycline for 8 weeks in transgenic mice. ARRY added after 4 weeks of TGF-α expression attenuated weight loss, compared to vehicle-treated mice. […] See FIG. 8, illustrating that ARRY prevents progression of TGF-α induced fibrosis as assessed by lung histology using a trichrome stain. In FIG. 8, a representative sample from 4 mice per group includes low power (4×) and higher power (10×) of pleural fibrosis. […] Lung Histology and Immunohistochemistry: Mice were killed with pentobarbital sodium (65 mg/ml) euthanasia solution (Fort Dodge Animal Health, Fort Dodge, Iowa), and lungs were inflation fixed using 4% paraformaldehyde at 25 cm H2O of pressure, and then allowed to fix overnight at 4° C. Fixed lungs were then washed with phosphate-buffered saline (PBS), dehydrated through a graded series of ethanols, and processed for paraffin embedding. […]

[9] = test system: phosphorylation of ERK1/2; assay: Western blot of lung homogenates for ERK1/2 phosphorylation in CCSP/TGF-α mice; assay type: in vivo; conditions: twice daily by gavage, 4 days of TGF-α induction, vs vehicle
Protocol: Western Blots: Western blot analysis was performed on lung homogenates of CCSP/TGF-α mice treated with 4 days of Dox. Controls were littermate single transgene CCSP/− mice treated with 1 day of Dox. Protein concentrations were assessed using a Bradford Assay and protein loaded on a 4%-20% Tris/glycine SDSPAGE (Invitrogen) and electroblotted to PVDF membranes (0.45 um: Bio-Rad). Blots were blocked with 5% nonfat dry milk in TBST (10 mM Tris, pH 8, 150 mM NaCl, 0.1% Tween 20) and incubated with antibodies against total and phosphorylated Erk (Cell Signaling Technology) and proliferating cell nuclear antigen (PCNA) (Cell Signaling Technology). Blots were washed in TBST and incubated with goat anti-rabbit horse radish peroxidase conjugated (Calbiochem, EMD Biosciences) secondary antibodies and developed on film by chemiluminescence using the ECL Plus system (Amersham Biosciences). Densitometry was performed using the volume integration function on a Phosphorlmager software Imagequant 5.2 (Molecular Dynamics, Sunnyvale, Calif.) after scanning the films.

[10] = test system: ERK1/2; conditions: previously shown; cited from earlier work
[11] = test system: TGF-α-induced pulmonary fibrosis; conditions: previous study; cited from earlier work

In the case of Cn1cnc2c(F)c(Nc3ccc(Br)cc3Cl)c(C(=O)NOCCO)cc21 [ARRY142886], the “lung mechanics (compliance, airway resistance, elastance)” value [1] is reported as “improved lung mechanics”, the “TGF-α-induced cellular proliferation (epithelial and mesenchymal) in lung sections” value [2] is reported as “dose-dependent inhibition of TGF-α-induced cellular proliferation” and the “lung proliferation and matrix gene expression” value [3] is reported as “significantly reduced lung proliferation and matrix gene expression”. For the same molecule, the body weight loss [4] was “Body weight loss was attenuated”, the “lung mechanics (airway resistance, airway and tissue elastance, compliance)” value [5] was “no changes in lung mechanics” and the “lung mechanics (airway resistance, airway and tissue elastance, compliance)” value ([5]; listed as ARRY) was “prevented TGFα-mediated increases in airway resistance, and airway and tissue elastance and decreases in compliance”. The total lung collagen [6] was “prevents TGF-α-induced fibrosis as assessed by total lung collagen”, the “lung fibrosis on lung histology” value ([7]; CCSP/TGF-α mice, twice daily for 4 weeks from time of Dox, trichrome stain) was “prevents TGF-α-induced pulmonary fibrosis as demonstrated by lung histology” and the “lung fibrosis overall (4-week prevention study)” value ([7]; TGF-α transgenic mice, 4 weeks twice daily, vs vehicle) was “complete prevention of lung fibrosis”. The “pulmonary fibrosis measured by lung matrix expression on lung histology” value [8] was “reduced pulmonary fibrosis” and the “phosphorylation of ERK1/2 in lung homogenates” value [9] was “inhibited increased phosphorylation of ERK1/2”.
In the case of C=CCN(/C=C1/C(=O)O[C@H](COC)[C@@]2(C)C1=C(O)C(=O)C1=C2[C@H](OC(C)=O)C[C@]2(C)C(=O)CC[C@@H]12)CC=C [PX-866], the “phosphorylation of ERK1/2 in treated TGF-α mice” value [10] is given as “remain phosphorylated”.
For C#Cc1cccc(Nc2ncnc3cc(OCCOC)c(OCCOC)cc23)c1 [erlotinib], the “fibrosis in the CCSP/TGF-α transgenic model” value [11] is given as “prevented fibrosis”.
For COc1cc2ncnc(Nc3ccc(F)c(Cl)c3)c2cc1OCCCN1CCOCC1 [gefitinib], the “fibrosis in the CCSP/TGF-α transgenic model” value [11] is given as “prevented fibrosis”.
